Assays:
[1] = target: T1, PolF (Streptomyces asoensis, UniProt C1IC29); conditions: Fe(II)2 form; L-Ile bidentate on Fe1; TEV-cleaved tagless protein, crystals grown with 15 mM L-Ile, pH 8.5
[2] = target: T2, PolE (Streptomyces asoensis, UniProt C1IC30); conditions: Fe(II), BH4, O2, ascorbate; 50 mM HEPES pH 7.6, 25 °C
T2 construct: gene Saso_24180

[3] = target: T1, PolF; conditions: Fe(II), O2, ascorbate; 50 mM HEPES pH 7.6, 25 °C (stopped-flow 5 °C, no ascorbate)

T2 sequence (C1IC30 entry or part of it): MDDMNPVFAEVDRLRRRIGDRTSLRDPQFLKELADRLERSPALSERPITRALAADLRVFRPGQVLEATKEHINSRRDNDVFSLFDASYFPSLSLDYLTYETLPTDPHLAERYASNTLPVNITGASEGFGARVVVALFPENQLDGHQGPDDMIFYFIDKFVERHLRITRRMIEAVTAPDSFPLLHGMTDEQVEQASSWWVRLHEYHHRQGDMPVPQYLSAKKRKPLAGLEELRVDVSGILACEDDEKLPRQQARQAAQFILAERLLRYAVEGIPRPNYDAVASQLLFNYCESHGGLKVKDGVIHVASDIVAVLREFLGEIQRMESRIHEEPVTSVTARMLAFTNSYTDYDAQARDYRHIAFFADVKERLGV

Row | Structure (SMILES) | X-ray crystal structure of the complex [1] | LC-MS of dansylated desaturation product [2] | LC-MS of dansylated products; stopped-flow at 614 nm [3]
1 | CC[C@H](C)[C@H](N)C(=O)O [L-Ile] | The L-Ile substrate directly coordinates Fe1 in a bidentate fashion | PolE catalysed the desaturation of L-Ile in the presence of BH4 | –
2 | CC(C)[C@H](N)C(=O)O [L-Val] | – | – | the reaction with L-Val yielded a product with a −4-Da modification

Reference: publication PMC12614342, “Azetidine amino acid biosynthesis by non-haem iron-dependent enzymes” (Nature Chemistry, 2025)
